Reference: patent US20220348572A1, “BRIDGED HETEROCYCLYL-SUBSTITUTED PYRIMIDINE COMPOUND, PREPARATION METHOD THEREFOR, AND PHARMACEUTICAL USE THEREOF” (The National Institutes of Pharmaceutical R&D Co., Ltd., priority 2019, published 2022)

How the values were obtained:
JAK1 kinase = target: T1, JAK1 kinase (Homo sapiens, UniProt P23458); test: In vitro inhibitory activity on JAK1 kinase (ADP-Glo Kinase Assay); assay type: biochemical; settings: JAK1 kinase 4 nM, 1 mM ATP
T1 construct: purchased Invitrogen PV4744
Method in brief: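 JAK1 (4 nM final) preincubated with compound 15 min at 25° C., then substrate mix (1 mM ATP, IRS1 0.05 mg/ml) added for 60 min at 25° C. ADP-Glo luminescence read-out; top concentration 10 μM, 3-fold, 10 points, duplicates; IC50 reported in ranged classes.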

TYK2 kinase = target: T2, TYK2 kinase (Homo sapiens, UniProt P29597); test: In vitro inhibitory activity on Tyk2 kinase (ADP-Glo Kinase Assay); assay type: biochemical; settings: TYK2 kinase 4 nM, 1 mM ATP
T2 sequence (P29597 897-1187 limits assumed): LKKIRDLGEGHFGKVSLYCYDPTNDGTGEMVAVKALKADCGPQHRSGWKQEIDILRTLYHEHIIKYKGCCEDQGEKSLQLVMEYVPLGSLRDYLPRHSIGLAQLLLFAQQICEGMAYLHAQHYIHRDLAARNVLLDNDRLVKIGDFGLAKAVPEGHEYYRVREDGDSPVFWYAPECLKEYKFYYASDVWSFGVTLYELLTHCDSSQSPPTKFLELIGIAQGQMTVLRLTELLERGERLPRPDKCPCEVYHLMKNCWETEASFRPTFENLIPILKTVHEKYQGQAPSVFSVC
Procedure: Test Example 2: Determination of In Vitro Inhibitory Activity of the Compounds of the Present Invention on Tyk2 Kinase Experimental materials: TYK2 (Invitrogen, PV4790), ATP (Promega, V915B), ADP-Glo Kinase Assay (Promega, V9101), IRS1 (Signalchem, 140-58-1000). Sample preparation: The compounds of the present invention and the control product were dissolved in DMSO solvent respectively to formulate into 10 mM initial liquid. The maximum concentration of the compound was 10 μM, 3-fold dilution, 10 concentration gradients, and duplicate wells for each concentration gradient. Experimental process: 0.1 μL of the compound to be tested was transferred into a 384 reaction plate (PE, 6007290) via Echo and centrifuged at 1000 rpm/min for 1 min. 5 μL TYK2 kinase (final concentration of 4 nM) was transferred into the 384 reaction plate, which was then centrifuged at 1000 rpm/min for 1 min, and incubated at 25° C. for 15 min. 5 μL substrate mixture (1 mM ATP, IRS1 0.05 mg/ml, kinase buffer solution) was transferred into the 384 reaction plate, which was then centrifuged at 1000 rpm/min for 1 min, and incubated at 25° C. for 60 min. 10 μL ADP-Glo was transferred into the 384 reaction plate, which was then centrifuged at 1000 rpm/min for 1 min, and incubated at 25° C. for 40 min. 20 μL test solution was transferred into the 384 reaction plate, which was centrifuged at 1000 rpm/min for 1 min and incubated at 25° C. for 40 min. RLU (Relative luminescence unit) signal was read by using an Envision multifunctional plate reader. The signal intensity was used to characterize the degree of the kinase activity. […] IC50 value of 0-100 nM is shown as A, IC50 value of 100-300 nM is shown as B, IC50 value of 300-1000 nM is shown as C, and IC50 value which is greater than 1000 nM is shown as D. NT means not tested.

T1 sequence (P23458 866-1154 limits assumed): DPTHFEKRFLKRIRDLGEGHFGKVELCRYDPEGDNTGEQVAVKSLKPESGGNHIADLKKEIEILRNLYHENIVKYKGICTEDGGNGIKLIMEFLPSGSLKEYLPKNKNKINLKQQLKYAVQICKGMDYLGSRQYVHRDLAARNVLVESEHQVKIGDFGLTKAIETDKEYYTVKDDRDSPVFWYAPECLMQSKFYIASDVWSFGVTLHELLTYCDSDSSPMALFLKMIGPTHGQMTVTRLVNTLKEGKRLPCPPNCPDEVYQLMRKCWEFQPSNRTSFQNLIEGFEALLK

Row | SMILES | IC50 (JAK1 kinase) | IC50 (TYK2 kinase)
1 | Cn1cc(Nc2nccc(C3=CC4CCC(C3)N4C(=O)[C@@H]3CC3(F)F)n2)cn1 (stereo partly drawn) [Compound 1, ((S)-2,2-difluorocyclopropyl)(3-(2-((1-methyl-1H-pyrazol-4-yl)amino)pyrimidin-4-yl)-8-azabicyclo[3.2.1]oct-2-en-8-yl)methanone] | < 100 nM | < 100 nM
2 | Cn1cc(Nc2nccc(C3=C[C@H]4CC[C@@H](C3)N4C(=O)[C@@H]3CC3(F)F)n2)cn1 [Compound 1-b, ((S)-2,2-difluorocyclopropyl)((1R,5S)-3-(2-((1-methyl-1H-pyrazol-4-yl)amino)pyrimidin-4-yl)-8-azabicyclo[3.2.1]oct-2-en-8-yl)methanone] | < 100 nM | < 100 nM
3 | Cn1cc(Nc2nccc(C3=CC4CCC(C3)N4C(=O)NCC(F)(F)F)n2)cn1 (stereo not drawn) [Compound 3, 3-(2-((1-methyl-1H-pyrazol-4-yl)amino)pyrimidin-4-yl)-N-(2,2,2-trifluoroethyl)-8-azabicyclo[3.2.1]oct-2-ene-8-carboxamide] | 100 to 300 nM | < 100 nM
